# According to US20150065709A1, “Aminoquinazoline Derivative And Use Thereof In Preparing Anti-Malignant Tumor Medicament” (METABOMICS, INC, priority 2012, published 2015):
# Tested on: CAL27 (head and neck cancer)
# Assay: Transplanted tumor in nude mice, CAL27 model
# Format: in vivo, nude mice (BALB/c)
# Conditions: 10 mg/kg/day orally for 21 days
# Excerpt: Furthermore, more pharmacological models of tumor cell lines in nude mice were utilized to validate the inhibitory effects of compound Ie. The test method was specifically described as follows: H1975, A549, HCC827, A431, N87, MDA-MD-468 and CAL27 tumor cells respectively were inoculated into nude mice (BALB/c, male, 5-6 weeks of age), and when the mean tumor volume reaches 150 mm^3 mice was randomized into groups. The H1975 tumor model in nude mice includes one positive control group and three dosage groups of compound Ie (6.7 mg/kg/day, 13.4 mg/kg/day, and 20.1 mg/kg/day. The A549 tumor model in nude mice includes one positive control group, two dosage groups of compound Ie (10 mg/kg/day, 20 mg/kg/day), and one dosage group of Docetaxel (12 mg/kg/day). The HCC827 tumor model in nude mice includes one positive control group, two dosage groups of compound Ie (0.5 mg/kg/day, 2.5 mg/kg/day), and one dosage group of Erlotinib (12.5 mg/kg/day). The A431 tumor model in nude mice includes one positive control group, two dosage groups of compound Ie (2.5 mg/kg/day, 5 mg/kg/day), and one dosage group of Erlotinib (50 mg/kg/day). […] The tumor size and body weight of nude mice were recorded twice weekly from the first day of administration. The tumor volume was calculated using formula (1×w^2), wherein 1 and w respectively represents the maximum and minimum size in each measurement. […]
structure (smiles),measurement,value
CN(C)C/C=C/C(=O)Nc1cc2c(Nc3ccc(F)c(Cl)c3)ncnc2cc1OC(F)F [Compound Ie],inhibitory and therapeutic effects on CAL27 tumor model,strong inhibitory effects and therapeutic effects
